Assay results from US12559769B2, “Methods and compositions for the activation of tumor cytotoxicity via human gamma-delta t-cells” (priority 2017, dated 2026).

Tested on: Vγ9Vδ2 T cells
Experiment: Activation of Vγ9Vδ2 T cells (TNF-α, flow cytometry) by HepG2 liver carcinoma cells co-cultured with expanded PBMC
Type: cell-based, human
Experimental: HepG2 cells were transduced with LV-vector, LV-BTN3A3 (R381H), or LV-shFDPS-BTN3A3 (R381H). Three days after transduction, cells were treated with or without 1 μM zoledronic acid. After 24 hours, the transduced HepG2 cells were co-cultured with 5×10^5 PBMC cells and IL-2 in a round bottom 96 well plate for 4 hours. The PBMC cells were pre-stimulated with zoledronic acid and IL-2 for 11 days to expand Vγ9Vδ2 T cells. After staining for Vγ9Vδ2 and TNF-α using fluorophore-conjugated anti TCR-Vδ2 and anti-TNF-α antibody, cells were analyzed via flow cytometry. Live cells were gated, and Vδ2+ and TNF-α+cells were selected on a dot blot. The activated cytotoxic Vγ9Vδ2 T cells appeared in the upper right quadrant of flow cytograms. Without zoledronic acid, the percent of TNF-α expressing Vγ9Vδ2 T cells was 0.6% with LV-vector, 9.5% with BTN3A3 (R381H), and 13.2% with the combination of LV-shFDPS-BTN3A3 (R381H). With zoledronic acid, the percent of TNF-α expressing Vγ9Vδ2 T cells was 7.2% with LV-vector, 17.8% with BTN3A3 (R381H), and 30.1% with the combination of LV-shFDPS-BTN3A3 (R381H).
HepG2 cells were transduced with LV-shFDPS or LV-shFDPS-IL-2. Three days after transduction, cells were treated with or without 1 μM zoledronic acid. After 24 hours, the transduced HepG2 cells were co-cultured with 5×10^5 PBMC cells and with or without IL-2 in a round bottom 96 well plate for 4 hours. The PBMC cells were pre-stimulated with zoledronic acid and IL-2 for 11 days to expand Vγ9Vδ2 T cells. After staining for Vγ9Vδ2 and TNF-α using fluorophore-conjugated anti TCR-Vδ2 and anti-TNF-α antibody, cells were analyzed via flow cytometry. Live cells were gated, and Vδ2+ and TNF-α+ cells were selected on a dot blot. The activated cytotoxic Vγ9Vδ2 T cells appeared in the upper right quadrant of flow cytograms. With only zoledronic acid, the percent of TNF-α expressing Vγ9Vδ2 T cells was 7.5% with LV-shFDPS and 20.1% with LV-shFDPS-IL-2. With zoledronic acid and IL-2, the percent of TNF-α expressing Vγ9Vδ2 T cells was 27.8% with LV-shFDPS and 24.7% with LV-shFDPS-IL-2.
HepG2 liver carcinoma cells were transduced with Lv-shFDPS, Lv-FDPS-IL-15 (expressing both shRNAFDPS and the human cytokine interleukin 15) or Lv-control and cultured for 72 hours. Zoledronic acid (1 μM) was added to (1) cells transduced with Lv-shFDPS, (2) cells transduced with Lv-FDPS-IL-15, and (3) HepG2 cells transduced with Lv-control. Treated cells were cultured for 24 hours. Lv-shFDPS transduced cells, Lv-FDPS-IL-15 transduced cells, and Lv-control transduced cells were co-cultured with PBMC enriched for Vγ9Vδ2 cells plus a protein transport inhibitor (BD GolgiStop) for 4 hours. After 4 hours of stimulation, cells were collected and labeled with Vδ2 phycoerythrin (PE) and TNFαallophycocyanin (APC), and the labeled cells were analyzed by flow cytometry.
HepG2 cells were transduced with LV-control or LV-FDPS shRNA #4 (SEQ ID NO: 4) or LV-GGPS1 shRNA #1 (SEQ ID NO: 70) for 3 days. Two days after transduction, cells were treated with or without 1 μM zoledronic acid. After 24 hours, the transduced HepG2 cells were co-cultured for 4 hours with 5×10^5 PBMC cells in a round bottom 96 well plate. The PBMC cells had been pre-stimulated with zoledronic acid plus IL-2 for at least 11 days to expand Vγ9Vδ2 T cells. After staining for Vγ9Vδ2 and TNF-α using fluorophore-conjugated anti TCR-Vδ2 and anti-TNF-α antibody, cells were analyzed via flow cytometry. Live cells were gated; Vδ2+ and TNF-α+ cells were identified on a dot blot. The activated cytotoxic Vγ9Vδ2 T cells appeared in the upper right quadrant of the flow cytograms. Without zoledronic acid, LV-control stimulated 0.36% of TNF-α expressing Vγ9Vδ2 T cells whereas LV-FDPS shRNA #4 (SEQ ID NO: 4) stimulated 0.9% and LV-GGPS1 #1 (SEQ ID NO: 70) shRNA stimulated 0.58%. […]

[1] = Example 26, FIG. 30, LV-FDPS shRNA #4 transduced HepG2 cells, drug 1 μM, 24 hours
[2] = Example 26, FIG. 30, LV-control transduced HepG2 cells, 1 μM, 24 hours, untreated 1.82%

Structure (SMILES): COC(=O)[C@H](CCSC)NC(=O)c1ccc(NC[C@@H](N)CS)cc1-c1ccccc1 [FT1277]
- percent of TNF-α expressing Vγ9Vδ2 T cells [1]: 2.69%
- percent of TNF-α expressing Vγ9Vδ2 T cells [2]: 1.72%

Structure (SMILES): C=C(CC[C@]12O[C@H](C(=O)O)[C@@](O)(C(=O)O)[C@](C(=O)O)(O1)[C@H](OC(=O)/C=C/[C@@H](C)C[C@@H](C)CC)[C@H]2O)[C@@H](OC(C)=O)[C@H](C)Cc1ccccc1 [zaragozic acid]
- percent of TNF-α expressing Vγ9Vδ2 T cells (Example 26, FIG. 30, LV-FDPS shRNA #4 transduced HepG2 cells, drug 5 μM, 24 hours): 2.82%
- percent of TNF-α expressing Vγ9Vδ2 T cells (Example 26, FIG. 30, LV-control transduced HepG2 cells, 5 μM, 24 hours, untreated 1.82%): 1.63%

Structure (SMILES): O=P(O)(O)C(O)(Cn1ccnc1)P(=O)(O)O [zoledronic acid]
- percent of TNF-α expressing Vγ9Vδ2 T cells (Example 4, LV-vector (control) transduced HepG2 cells, 1 μM zoledronic acid): 7.2%
- percent of TNF-α expressing Vγ9Vδ2 T cells (Example 20, LV-control transduced HepG2 cells, 1 μM zoledronic acid): 6.88%
- percent of TNF-α expressing Vγ9Vδ2 T cells [1]: 50.8%
- percent of TNF-α expressing Vγ9Vδ2 T cells [2]: 3.02%
